The values below come from patent EP4740932A2, “COSMETIC COMPOSITION FOR SKIN IMPROVEMENT AND PHARMACEUTICAL COMPOSITION FOR PREVENTING OR TREATING SKIN DAMAGE, EACH CONTAINING HONOKIOL AND POLYOL” (Cosmax, Inc., priority 2023, dated 2025).

Data set [1] is described as follows: DPPH test of antioxidant activity. Conditions: 10 and 100 ppm, room temperature, 30 minutes; compared to retinol. In kind it is biochemical. How it is done: It was confirmed by the DPPH test whether honokiol exerts antioxidant activity.
Specifically, the DPPH solution was treated with Ascorbic Acid (AA), retinol, and honokiol at 10 and 100 ppm, respectively, at room temperature for 30 minutes. The absorbance was measured at 517 nm to show antioxidant activity as the ratio of the decrease in absorbance to the control. At this time, ascorbic acid, an antioxidant, was used as a control group for determining the absorbance reduction ratio.

For the next data set, the system named is HAS3. In words: qRT-PCR of hyaluronic acid synthase factor in HaCaT cells. In kind it is cell-based. The conditions noted are these: 24 hours. The procedure:
(§1) Specifically, HaCaT cells, which are skin stratum corneum cells, were treated with retinol and honokiol at 0.1 and 1 ppm, respectively, for 24 hours.
(§2) The mRNA expression levels of the AQP3 gene, which is a factor related to the migration of moisture present in the dermis, and the HAS3 gene, which is a factor related to hyaluronic acid synthase, were then measured through qRT-PCR analysis, and the β-actin expression levels were converted and compared.

Data set [2] can be described thus: Solvent selection: dissolving 5 wt % honokiol in water, BG, MCT. In kind it is physicochemical. The source says:
Honokiol is a poorly soluble component and has low solubility in water, so it has the property of being dissolved in an organic solvent. To stabilize the cosmetic composition including honokiol at a high concentration of 5 wt %, three types of solvents corresponding to water, Butylene Glycol (BG), and medium-chain triglyceride (MCT) oil were applied to confirm the result.

The next data set has as its system HaCaT cells. In words: MTT cytotoxicity evaluation on skin keratinocytes. In kind it is cell-based. Conditions: HaCaT (skin stratum corneum cells), 0.1, 0.5, 1 and 5 ppm, 24 hours, at concentrations of 5 ppm or less. How it is done:
(§3) Toxicity assessments of honokiol on skin epidermis and dermal cells were performed. Specifically, HaCaT cells, which are skin keratinocytes, and Hs68 cells, which are skin dermis cells, were cultured in a 96 well plate at a concentration of 2 X […] and cultured in a medium including FBS ([…]) and antibiotics (Antibiotic antibiotic) at 37°C and 5% CO2 for 24 hours, and then further cultured by treating the medium including only antibiotics with 0.1, 0.5, 1, and 5 ppm for each concentration on the next day. After 24 hours, the toxic concentration of the honokiol material on skin cells was determined by replacing it with medium containing MTT tetrazolum (Sigma-aldrich, St. Lous, USA) and by reacting at 37°C for 4 hours to evaluate the cellular metabolic activity.

The next data set deals with TSLP. The experiment in a line: qRT-PCR of inflammation-related factor in Poly I:C/IL-4 stimulated HaCaT cells. The format is cell-based. Conditions: 10 µg/ml Poly I:C and 10 µg/ml IL-4, 1 ppm, 4 hours. How it is done: Specifically, HaCaT cells, which are skin stratum corneum cells, were treated (+) with 10 µg/ml of Poly I:C and 10 µg/ml of IL-4 protein, which are inflammatory response inducing substances, and prepared as an experimental group in which 1 µM (Dexa) of dexamethasone (DEXA), retinol, and honokiol, which are […], were treated for 4 hours at 0.1 and 1 ppm, respectively. The untreated group (-) was prepared as a negative control.
Afterwards, the expression level of the TSLP gene, an inflammation-related factor expressed in skin keratinocytes, was measured through qRT-PCR analysis, converted based on the expression level of ectin, and compared.

The subject of the next data set is filaggrin (FLG). The experiment in a line: qRT-PCR of filaggrin in HaCaT cells. In kind it is cell-based. Conditions: 24 hours. How it is done: as §1
(§4) Subsequently, through qRT-PCR analysis, the mRNA expression of filaggrin (FLG), a moisturizing component-related factor present in keratinocytes constituting the skin barrier, and the CLDN1 gene, a factor related to the binding of the skin barrier, were measured and compared based on the β-actin expression level.

A short description of data set [3]: HPLC potency analysis after storage. The format is physicochemical. Conditions: harsh environments of low temperature, high temperature, and cycle. The procedure:
Honokiol was dissolved in BG and MCT at a concentration of 5 wt %, and high-performance liquid chromatography (HPLC) was performed to observe whether precipitates were formed at 4°C, 25°C, 45°C, 50°C, and sunlight, and to analyze potency.

Another data set concerns ELN1. In words: qRT-PCR of elastin production factor in UVB-irradiated Hs68 cells. The format is cell-based. The conditions noted are these: Hs68, UVB 25 mJ/cm^2, 1 ppm, 24 hours; compared with RA, EGCG, retinol. The procedure: (§5) Specifically, Hs68 cells, which are skin dermal layer cells, were irradiated with UVB (ultraviolet-B) having a 25 mJ/cm^2 intensity, and then treated with RA, EGCG, retinol, and honokiol, 1 ppm each, for 24 hours.
(§6) The mRNA expression levels of ELN1, a factor associated with elastin production promotion, and FBN, a factor associated with fibronectin production promotion, were then measured using qRT-PCR analysis, and the levels of actin expression from the UVB non-irradiated group were converted and compared.

Another data set has as its system AQP3. In words: qRT-PCR of moisture migration factor in HaCaT cells. The format is cell-based. The conditions noted are these: 24 hours. The procedure: as §1, §2
The next data set has as its system Hs68 cells. In words: MTT cytotoxicity evaluation on skin dermis cells. The conditions noted are these: Hs68 (skin dermis cells), 0.1, 0.5, 1 and 5 ppm, 24 hours, at concentrations of 5 ppm or less. The format is cell-based. How it is done: as §3
For a further data set, the system named is CLDN1. The experiment in a line: qRT-PCR of skin barrier binding factor in HaCaT cells. The format is cell-based. Conditions: 1 ppm, 24 hours, versus control group. The procedure:
as §1, §4

The subject of a further data set is COL1A1. The experiment in a line: qRT-PCR of collagen production promotion factor in UVB-irradiated Hs68 cells. In kind it is cell-based. The conditions noted are these: Hs68, UVB 25 mJ/cm^2, 1 ppm, 24 hours; relative to UVB non-irradiated group; compared with RA, EGCG, retinol.
A further data set has as its system FBN. In words: qRT-PCR of fibronectin production factor in UVB-irradiated Hs68 cells. The format is cell-based. The conditions noted are these: Hs68, UVB 25 mJ/cm^2, 1 ppm, 24 hours; compared with RA, EGCG, retinol. The procedure:
as §5, §6

In a further data set the test system is MMP-1. In words: qRT-PCR of collagen degradation enzyme factor in UVB-irradiated Hs68 cells. The format is cell-based. Conditions: Hs68, UVB 25 mJ/cm^2, 1 ppm, 24 hours; relative to UVB non-irradiated group. The procedure: It was determined whether honokiol increases the amount of skin collagen. Specifically, Hs68 cells, which are skin dermal layer cells, were irradiated with 25 mJ/cm^2 intensity of UVB (ultraviolet B), and then treated with RA (retinoic acid), EGCG (epigallocatechin gallate), retinol, and honokiol at a concentration of 1 ppm for 24 hours, respectively.
The mRNA expression of the collagen production promotion factor COL1A1 and the collagen degradation enzyme factor MMP-1 gene was measured through qRT-PCR analysis and converted based on the actin expression, and the relative values for the expression of the UVB non-irradiated group were calculated and compared.
The collagen production amount was compared in the same manner as in Example 2-1, and the treatment sample was changed to a honokiol solution dissolved in RA (retinoic acid), retinol, DMSO (dimethyl sulfoxide), a honokiol solution dissolved in BG, and a honokiol solution dissolved in PG (propylene glycol).
In Example 2-1, a 5% (w/w) solution was prepared as a sample to confirm stability in a high concentration dissolved state, whereas a honokiol solution for treating cells was prepared at a concentration of 1 mg/ml, and the honokiol alone component treated in cells was performed to be 1 ppm.

The mark [4] stands for this setting: 0.1 and 1 ppm, overall versus retinol.

Turning to `C=CCc1ccc(O)c(-c2ccc(O)c(CC=C)c2)c1` [honokiol], the “antioxidant activity (DPPH, decrease in absorbance at 517 nm)” value in [1] was “remarkably high antioxidant activity compared to retinol”. Besides, the “HAS3 mRNA expression level” value is “higher overall expression than the retinol-treated group” in the data set on HAS3 (setting [4]) and “significantly increased the expression of related genes” in the data set with HAS3 (1 ppm). Further, the results for the solubility result in data set [2] (5 wt % honokiol in BG), in data set [2] (5 wt % honokiol in MCT) and in [2] (5 wt % honokiol in water) were “well soluble”, “well soluble” and “low”, respectively. Further, the cytotoxicity result in the data set with HaCaT cells and in the data set on Hs68 cells was “did not cause cytotoxicity” each time. Also, the “TSLP gene expression amount” value in the data set with TSLP is “significantly reducing the expression amount of the TSLP gene”. The “FLG mRNA expression” value is listed as “higher expression than the retinol-treated group overall” with filaggrin (FLG) (setting [4]) and “significantly increased the expression of the FLG gene” with filaggrin (FLG) (1 ppm). Besides, in data set [3], the “potency maintenance (stability of the material)” value was “maintained its potency well”. For the same compound, the “ELN1 mRNA expression level” value with ELN1 was “highest expression level among the UV-irradiated groups but also showed a higher expression level than the UV-unirradiated group”. Further, the “AQP3 mRNA expression level” value in the data set with AQP3 (setting [4]) was “higher overall expression than the retinol-treated group”; with AQP3 (1 ppm), “significantly increased the expression of related genes”. Moreover, the “CLDN1 mRNA expression level” value in the data set on CLDN1 is recorded as “significantly increased the expression level of the CLDN1 gene compared to that of the control group”. Further, the “COL1A1 mRNA expression (collagen production)” value in the data set on COL1A1 was “higher collagen production than the UVB-only irradiated group, and showed the highest collagen production among all UVB irradiated groups”. The “FBN mRNA expression level” value in the data set on FBN is given as “highest expression level among the UV-irradiated groups but also showed a higher expression level than the UV-unirradiated group”. Moreover, in the data set on MMP-1, the “MMP-1 mRNA expression (collagen degrading enzyme production)” value is on record as “lower amount of collagen degrading enzyme production than the UVB-only irradiation group”.
